# Patent US6835748B2, “Treatment of ocular disorders” (priority 1999, dated 2004)
# Columns and labels:
# Format in all cases: in vivo, rabbit
# [1] = tested on: normotensive adult rabbits; assay: Pupil diameter measurement; settings: topical 1%, 2%, 5% solutions
# Description: (§1) Male and female adult brown burgundy rabbits (2.6-4.4 kg) are used in this study. Animals are kept in individual cages under well-defined and standardized conditions (humidity and temperature controlled room, 13 h light/11 h dark cycle) with standard dry food and water ad libitum. All animals are accustomed to the procedure of IOP measurement but only those animals that have stable records are included in the study. All experiments are conducted in accordance with the ARVO resolution for the use of animals in ophthalmic and vision research and are approved by the Federal and Local Ethical and Agricultural Committees.
# (§2) Solutions of a test drug are freshly prepared before each experiment by dissolution in sterile balanced salt solution (BSS) (Alcon Pharmaceuticals Ltd, Forth Worth, Tex., USA) at the required concentrations under sterile conditions. One 50-μL drop of the test solution is applied topically to the right eye whereas the contralateral eye receives the carrier BSS only.
# Pupil diameter is measured horizontally in both eyes using a pupil gauge closely applied to the cornea under diffuse illumination conditions.
# [2] = tested on: normotensive adult rabbits; assay: Slit-lamp examination (local tolerability); settings: topical 1%, 2%, 5% solutions; before and 4 and 8 hours after administration
# Description: as §1, §2
# Slit-lamp biomicroscopy is performed by a trained ophthalmologist before drug administration and 4 and 8 hours thereafter. Eyes are controlled for conjunctival redness and discharge, for integrity of the corneal epithelium and for the absence or presence of flare (protein in the anterior chamber being an indication of blood aqueous barrier breakdown).
# [3] = tested on: normotensive adult rabbits; assay: IOP measurement (TonoPen XL) after a single topical 50-μL drop in rabbits
# Description: as §1, §2
# IOP is measured with a TonoPen XL (Mentor, Norvel, Mass.), the device being calibrated daily according to the manufacturer's instructions. […] Corneas are anaesthetized by topical application of a 50-μL drop of 0.2% Novocaine prior to each IOP measurement.
# Measurements are always initiated at the same time (8 a.m.), a sufficient recovery period of at least 7 days is provided for the animals between the experiments. Control readings are taken 10 minutes before instillation of the test drug to the right eye and of the vehicle to the left one. IOP is recorded at 1-hour intervals for the ensuing 8 hours. Baseline measurements are likewise performed hourly in all animals prior to treatment, for monitoring of diurnal rhythms. (9)
# Data are analyzed according to the Mann-Whitney U-test. IOP values recorded before and after application of Rivastigmine or the drug vehicle are compared in the same eye, differences with a first order error of P<0.05 being considered as statistically significant.
smiles,measurement,setting,value
CCN(C)C(=O)Oc1cccc(C(C)N(C)C)c1 (centres unmarked) [Rivastigmine],Pupil reaction in drug-treated eyes,[1],insignificant miotic pupil reaction
same,"Local toxicity (slit-lamp: redness, discharge, corneal epithelium, flare)",[2],No signs of rivastigmine-related local toxicity
same,"Time of maximal mean decrease in IOP, treated eye",[3]; 1% solution,5 h
same,"Duration of significant IOP-lowering effect, treated eyes",[3]; 1% solution (longest effect),5 h
same,"IOP, left eye (untreated, vehicle)","[3]; 1% solution applied to contralateral right eye, n=8, time 0 hrs (control reading before instillation)",12.0 mm
same,"Time of maximal mean decrease in IOP, untreated eye",[3]; 1% solution to contralateral eye,4 h
same,"IOP, left eye (untreated, vehicle)","[3]; 1% solution to contralateral eye, time 1 hrs",11.6 mm
same,"IOP, left eye (untreated, vehicle)","[3]; 1% solution to contralateral eye, time 2 hrs",11.2 mm
same,"IOP, left eye (untreated, vehicle)","[3]; 1% solution to contralateral eye, time 3 hrs",11.1 mm
same,"IOP, left eye (untreated, vehicle)","[3]; 1% solution to contralateral eye, time 4 hrs",10.2 mm
same,"IOP, left eye (untreated, vehicle)","[3]; 1% solution to contralateral eye, time 5 hrs",11.0 mm
same,"IOP, left eye (untreated, vehicle)","[3]; 1% solution to contralateral eye, time 6 hrs",10.7 mm
same,"IOP, left eye (untreated, vehicle)","[3]; 1% solution to contralateral eye, time 7 hrs",11.1 mm
same,"IOP, left eye (untreated, vehicle)","[3]; 1% solution to contralateral eye, time 8 hrs",11.4 mm
same,"IOP, right eye (treated)","[3]; 1% solution, 50-μL drop topical, n=8, time 0 hrs (control reading before instillation)",12.3 mm
same,"Maximal mean decrease in IOP, treated eye","[3]; 1% solution, 5 hours after application",2.6±1.2 mm Hg
same,"IOP, right eye (treated)","[3]; 1% solution, time 1 hrs",12.0 mm
same,"IOP, right eye (treated)","[3]; 1% solution, time 2 hrs",11.2 mm
same,"IOP, right eye (treated)","[3]; 1% solution, time 3 hrs",10.8 mm
same,"IOP, right eye (treated)","[3]; 1% solution, time 4 hrs",10.5 mm
same,"IOP, right eye (treated)","[3]; 1% solution, time 5 hrs",10.1 mm
same,"IOP, right eye (treated)","[3]; 1% solution, time 6 hrs",11.1 mm
same,"IOP, right eye (treated)","[3]; 1% solution, time 7 hrs",11.5 mm
same,"IOP, right eye (treated)","[3]; 1% solution, time 8 hrs",11.6 mm
same,"Time of maximal mean decrease in IOP, treated eye",[3]; 2% solution,3 h
same,"IOP, left eye (untreated, vehicle)","[3]; 2% solution applied to contralateral right eye, n=4, time 0 hrs (control reading before instillation)",11.2 mm
same,"Time of maximal mean decrease in IOP, untreated eye",[3]; 2% solution to contralateral eye,3 h
same,"IOP, left eye (untreated, vehicle)","[3]; 2% solution to contralateral eye, time 1 hrs",11.9 mm
same,"IOP, left eye (untreated, vehicle)","[3]; 2% solution to contralateral eye, time 2 hrs",11.2 mm
same,"IOP, left eye (untreated, vehicle)","[3]; 2% solution to contralateral eye, time 3 hrs",10.2 mm
same,"IOP, left eye (untreated, vehicle)","[3]; 2% solution to contralateral eye, time 4 hrs",12.3 mm
same,"IOP, left eye (untreated, vehicle)","[3]; 2% solution to contralateral eye, time 5 hrs",11.5 mm
same,"IOP, left eye (untreated, vehicle)","[3]; 2% solution to contralateral eye, time 6 hrs",11.2 mm
same,"IOP, left eye (untreated, vehicle)","[3]; 2% solution to contralateral eye, time 7 hrs",11.0 mm
same,"IOP, left eye (untreated, vehicle)","[3]; 2% solution to contralateral eye, time 8 hrs",13.0 mm
same,"IOP, right eye (treated)","[3]; 2% solution, 50-μL drop topical, n=4, time 0 hrs (control reading before instillation)",11.5 mm
same,"Maximal mean decrease in IOP, treated eye","[3]; 2% solution, 3 hours after application",2.2±0.8 mm Hg
same,"IOP, right eye (treated)","[3]; 2% solution, time 1 hrs",11.5 mm
same,"IOP, right eye (treated)","[3]; 2% solution, time 2 hrs",11.0 mm
same,"IOP, right eye (treated)","[3]; 2% solution, time 3 hrs",9.2 mm
same,"IOP, right eye (treated)","[3]; 2% solution, time 4 hrs",10.8 mm
same,"IOP, right eye (treated)","[3]; 2% solution, time 5 hrs",11.5 mm
same,"IOP, right eye (treated)","[3]; 2% solution, time 6 hrs",11.1 mm
same,"IOP, right eye (treated)","[3]; 2% solution, time 7 hrs",10.8 mm
same,"IOP, right eye (treated)","[3]; 2% solution, time 8 hrs",12.0 mm
same,"Time of maximal mean decrease in IOP, treated eye",[3]; 5% solution,1 h
same,"IOP, left eye (untreated, vehicle)","[3]; 5% solution applied to contralateral right eye, n=6, time 0 hrs (control reading before instillation)",13.4 mm
same,"Time of maximal mean decrease in IOP, untreated eye",[3]; 5% solution to contralateral eye,1 h
same,"IOP, left eye (untreated, vehicle)","[3]; 5% solution to contralateral eye, time 1 hrs",10.7 mm
same,"IOP, left eye (untreated, vehicle)","[3]; 5% solution to contralateral eye, time 2 hrs",11.5 mm
same,"IOP, left eye (untreated, vehicle)","[3]; 5% solution to contralateral eye, time 3 hrs",11.3 mm
same,"IOP, left eye (untreated, vehicle)","[3]; 5% solution to contralateral eye, time 4 hrs",11.9 mm
same,"IOP, left eye (untreated, vehicle)","[3]; 5% solution to contralateral eye, time 5 hrs",13.2 mm
same,"IOP, left eye (untreated, vehicle)","[3]; 5% solution to contralateral eye, time 6 hrs",12.5 mm
same,"IOP, left eye (untreated, vehicle)","[3]; 5% solution to contralateral eye, time 7 hrs",13.3 mm
same,"IOP, left eye (untreated, vehicle)","[3]; 5% solution to contralateral eye, time 8 hrs",13.0 mm
same,Significance of IOP decrease in untreated eyes,"[3]; 5% solution to contralateral eye, P<0.05, Mann-Whitney U-test",significant
same,"IOP, right eye (treated)","[3]; 5% solution, 50-μL drop topical, n=6, time 0 hrs (control reading before instillation)",13.7 mm
same,"Maximal mean decrease in IOP, treated eye","[3]; 5% solution, 1 hour after application",3.5±1.2 mm Hg
same,"IOP, right eye (treated)","[3]; 5% solution, time 1 hrs",10.0 mm
same,"IOP, right eye (treated)","[3]; 5% solution, time 2 hrs",11.1 mm
same,"IOP, right eye (treated)","[3]; 5% solution, time 3 hrs",10.8 mm
same,"IOP, right eye (treated)","[3]; 5% solution, time 4 hrs",10.5 mm
same,"IOP, right eye (treated)","[3]; 5% solution, time 5 hrs",12.9 mm
same,"IOP, right eye (treated)","[3]; 5% solution, time 6 hrs",12.5 mm
same,"IOP, right eye (treated)","[3]; 5% solution, time 7 hrs",14.0 mm
same,"IOP, right eye (treated)","[3]; 5% solution, time 8 hrs",11.8 mm
same,IOP effect in the treated eye (in words),"[3]; topical 1%, 2%, 5% solutions",lowers the IOP significantiy
